Test system: MCMV
Assay: In vivo challenge of newborn ICR mice with K181-Nluc/Green, live and organ imaging
Method: To verify whether recombinant virus K181-Nluc/Green can be applied to evaluate potential drugs, neutralizing antibodies, vaccines, etc. against CMV in vivo. The inventors of the present invention carried out in vivo challenge test with ICR mice in the Animal Biosafety Laboratory (ABSL-2). […] Twelve newborn ICR mice were divided into three groups: control group (PBS), placebo group (DMSO) and ganciclovir (GCV) treatment group. By intracerebroventricular injection (I.C.), 1 μl (4×10^5 PFU) K181-Nluc/Green virus solution was injected into the lateral ventricles of newborn mice (P0) to establish the brain infection model of MCMV virus. After 1 day of challenge, 50 mg/kg GCV was given to mice every day until the 7th day after infection, and the Nanoluc substrate (Cat. #N1120, Promega, USA) was intraperitoneally injected on the 1st, 3rd, 5th, 7th, 9th, 11th and 14th days after infection.
In addition, seven days after the mice were infected, one mouse was randomly selected from the placebo (DMSO) group and the GCV treatment group, and Nanoluc substrate was injected intraperitoneally. […] The organs and tissues of mice were taken, and the content of MCMV virus in organs and tissues of mice in different groups was evaluated by fluorescence activity.

With Nc1nc(O)c2ncn(COC(CO)CO)c2n1 [GCV, ganciclovir] the “Nluc or GFP signals in different organs of mice” value (I.C. 4×10^5 PFU K181-Nluc/Green, 50 mg/kg GCV every day, 7 days after infection (FIGS. 14 and 15)) was “no detection of apparent Nluc or GFP signals” and the “MCMV replication and spreading in vivo” value (I.C. K181-Nluc/Green, 50 mg/kg GCV every day until the 7th day) was “effectively reduce the MCMV replication and spreading in vivo”.

From patent publication US20250361526A1, “[…] CYTOMEGALOVIRUS-DERIVED TOOL VIRUS, METHOD OF PRODUCING THE SAME AND APPLICATIONS THEREOF” (WUHAN INSTITUTE OF VIROLOGY, CHINESE ACADEMY OF SCIENCES, priority 2022, published 2025)
